The results in this text go back to US10760052B2, “Method of inhibiting tau phosphorylation” (priority 2012, dated 2020).

Test [1] has as its target T1, α7nAChR-FLNA complex (Rattus norvegicus, UniProt A0A8I5ZV49).
T1 construct: from tissue; host or cells: rat frontal cortex synaptosomes
Description: Aβ42-induced α7nAChR-FLNA association in rat frontal cortical synaptosomes (co-immunoprecipitation/Western blot). Particulars: 1 or 10 nM compound, simultaneously or 10 minutes prior to Aβ42 (0.1 μM). In kind it is cell-based. An excerpt: The α7nAChR-FLNA complexes in the solubilized synaptosomes were immunoprecipitated with immobilized anti-FLNA and the α7nAChR and FLNA levels in the anti-FLNA immunoprecipitates determined by Western blotting (FIG. 2A) and quantified by densitometry (FIG. 2B). n=3. […] The letter designation “M” that accompanies many of the “C-series” compounds is omitted from FIG. 2, the remaining figures and most discussions of the figures and compounds hereinafter for ease in expression. Structural formulas of the compounds used in this and the other figures are provided hereinafter. […]
(A western blot detects proteins with antibodies after separation by electrophoresis.)

For test [2], the system named is tau protein phosphorylated at S202, T231 and T181. Nature of the test: Aβ42-induced tau phosphorylation in rat frontal cortical synaptosomes. In kind it is cell-based. As to conditions: 1 or 10 nM compound, simultaneously or 10-minute pretreatment; Aβ42 0.1 μM. How it is done:
FIG. 4 in four panels as FIGS. 4A-4D, illustrates that FLNA-binding compounds reduce tau phosphorylation at all three phosphorylation sites. […] The three phosphoepitopes of tau were detected in immunoprecipitates using specific antibodies. […] Immunoprecipitates were determined by Western blotting (FIGS. 4A-4C) and quantified by densitometry (FIG. 4D).
FIG. 42, also in two panels, FIGS. 42A and 42B, illustrates that FLNA-binding compounds reduce tau phosphorylation at all three phosphorylation sites using the compounds and concentrations of FIG. 41 using immunoprecipitation and Western blotting. […] The three phosphoepitopes of tau were detected in immunoprecipitates using specific antibodies.
FIG. 44, also in two panels, FIG. 44A and FIG. 44B, illustrates that FLNA-binding compounds reduce tau phosphorylation at all three phosphorylation sites using the compounds and concentrations of FIG. 43 using immunoprecipitation and Western blotting. […] The three phosphoepitopes of tau were detected in immunoprecipitates using specific antibodies. Aβ42 strongly promotes tau phosphorylation at all three sites.
FIG. 46, also in two panels, FIG. 46A and FIG. 46B, illustrates that FLNA-binding compounds reduce tau phosphorylation at all three phosphorylation sites using the compounds and concentrations of FIG. 45 using immunoprecipitation and Western blotting. […] The three phosphoepitopes of tau were detected in immunoprecipitates using specific antibodies. Aβ42 strongly promotes tau phosphorylation at all three sites.
The three primary phosphorylation sites on tau protein were examined for their phosphorylation levels compared to total tau protein content. Tau, phosphorylated at these three sites, is a constituent of NFTs. Consistent with effects on FLNA-α7nAChR association, and ERK2 activation, all of the FLNA-binding compounds assayed, with 10 minute pre-incubation, decreased Aβ42-induced phosphorylation of tau at all three sites (FIG. 4).

Test [3] deals with T2, α7nAChR-FLNA complex (Homo sapiens, UniProt P36544).
T2 construct: In postmortem control frontocortical tissue, Aβ42-induced FLNA recruitment to α7nAChRs was mimicked; from tissue; host or cells: postmortem frontal cortex of control subjects
The format is cell-based. How it is done: Incubation continued for 1 hour in the dark. […] The reaction was terminated by the addition of 1.5 ml of ice-cold Ca^2+-free K-R, and slices were collected by a brief centrifugation.
Solubilized immunoprecipitates derived from co-immunoprecipitation assays were separated by either 7.5 or 10% SDS-PAGE and then electrophoretically transferred to nitrocellulose membranes. The membranes were washed with PBS and blocked overnight (about 18 hours) at 4° C. with 10% milk in PBS with 0.1% Tween®-20 (PBST). Following three 5-minute washes with 0.1% PBST, the membranes were incubated at room temperature for 2 hours with antibody of choice at 1:500-1:1,000 dilutions. After three 2-minute washes in 0.1% PBST, membranes were incubated for 1 hour with anti-species IgG-HRP (1:5,000 dilution) and washed with 0.1% PBST three times, 2-minutes each. Immunoreactivity was visualized by reacting with chemiluminescent reagent (Pierce-ENDOGEN) for exactly 5 minutes and immediately exposing to X-ray film. Specific bands were quantified by densitometric scanning (GS-800 calibrated densitometer, Bio-Rad Laboratories).

Test [4] deals with VAKGL pentapeptide of filamin A (FLNA) of SEQ ID NO: 1 (Homo sapiens, UniProt P21333). Description: FITC-NLX-based FLNA screening assay (inhibition of FITC-naloxone binding to Bn-VAKGL on streptavidin plates). Particulars: for Binding to FLNA (in words): preliminary study; for Percent Binding Inhibition (FITC-NLX binding): 10 nM FITC-NLX.
For test [5], the target named is T3, mu opiate receptor (MOR) (Rattus norvegicus, UniProt P33535).
T3 construct: from tissue; host or cells: striatum (membrane preparation)
In kind it is biochemical. As to conditions: for MOR agonist activity ([35S]GTPγS binding), compound as agonist / MOR agonist activity (in words): preliminary study; for MOR agonist activity ([35S]GTPγS binding), compound as agonist: average of two runs; for Concentration of FLNA-Binding Compound as Agonist 0.1 μM / Concentration of FLNA-Binding Compound as Agonist 1 μM / Concentration of FLNA-Binding Compound as Agonist 1 μM + BFNA: [35S]GTPγS binding to Gαo in striatal membranes; for Concentration of FLNA-Binding Compound as Agonist 0.1 μM: compound 0.1 μM; for Concentration of FLNA-Binding Compound as Agonist 1 μM: compound 1 μM; for Concentration of FLNA-Binding Compound as Agonist 1 μM + BFNA: compound 1 μM plus 1 μM β-funaltrexamine (MOR antagonist). A general note: Binding of GTPγS marks nucleotide exchange on a G protein.

[6] abbreviates: 1 μM agent, relative to 0.1 μM Aβ42.

Where two headings read alike, the source gives them in different places.

T3 sequence (P33535 whole entry): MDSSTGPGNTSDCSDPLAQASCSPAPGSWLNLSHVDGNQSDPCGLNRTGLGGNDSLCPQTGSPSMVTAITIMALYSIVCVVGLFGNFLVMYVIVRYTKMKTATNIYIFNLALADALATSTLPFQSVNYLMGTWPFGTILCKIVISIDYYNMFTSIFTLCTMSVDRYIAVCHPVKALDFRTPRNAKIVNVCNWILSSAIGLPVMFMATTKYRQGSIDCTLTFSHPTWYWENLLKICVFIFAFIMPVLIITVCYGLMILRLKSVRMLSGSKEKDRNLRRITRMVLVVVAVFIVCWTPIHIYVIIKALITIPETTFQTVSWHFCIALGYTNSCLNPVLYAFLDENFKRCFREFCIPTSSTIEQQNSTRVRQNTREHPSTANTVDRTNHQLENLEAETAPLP
T1 sequence (A0A8I5ZV49 entry or part of it, one chain of several): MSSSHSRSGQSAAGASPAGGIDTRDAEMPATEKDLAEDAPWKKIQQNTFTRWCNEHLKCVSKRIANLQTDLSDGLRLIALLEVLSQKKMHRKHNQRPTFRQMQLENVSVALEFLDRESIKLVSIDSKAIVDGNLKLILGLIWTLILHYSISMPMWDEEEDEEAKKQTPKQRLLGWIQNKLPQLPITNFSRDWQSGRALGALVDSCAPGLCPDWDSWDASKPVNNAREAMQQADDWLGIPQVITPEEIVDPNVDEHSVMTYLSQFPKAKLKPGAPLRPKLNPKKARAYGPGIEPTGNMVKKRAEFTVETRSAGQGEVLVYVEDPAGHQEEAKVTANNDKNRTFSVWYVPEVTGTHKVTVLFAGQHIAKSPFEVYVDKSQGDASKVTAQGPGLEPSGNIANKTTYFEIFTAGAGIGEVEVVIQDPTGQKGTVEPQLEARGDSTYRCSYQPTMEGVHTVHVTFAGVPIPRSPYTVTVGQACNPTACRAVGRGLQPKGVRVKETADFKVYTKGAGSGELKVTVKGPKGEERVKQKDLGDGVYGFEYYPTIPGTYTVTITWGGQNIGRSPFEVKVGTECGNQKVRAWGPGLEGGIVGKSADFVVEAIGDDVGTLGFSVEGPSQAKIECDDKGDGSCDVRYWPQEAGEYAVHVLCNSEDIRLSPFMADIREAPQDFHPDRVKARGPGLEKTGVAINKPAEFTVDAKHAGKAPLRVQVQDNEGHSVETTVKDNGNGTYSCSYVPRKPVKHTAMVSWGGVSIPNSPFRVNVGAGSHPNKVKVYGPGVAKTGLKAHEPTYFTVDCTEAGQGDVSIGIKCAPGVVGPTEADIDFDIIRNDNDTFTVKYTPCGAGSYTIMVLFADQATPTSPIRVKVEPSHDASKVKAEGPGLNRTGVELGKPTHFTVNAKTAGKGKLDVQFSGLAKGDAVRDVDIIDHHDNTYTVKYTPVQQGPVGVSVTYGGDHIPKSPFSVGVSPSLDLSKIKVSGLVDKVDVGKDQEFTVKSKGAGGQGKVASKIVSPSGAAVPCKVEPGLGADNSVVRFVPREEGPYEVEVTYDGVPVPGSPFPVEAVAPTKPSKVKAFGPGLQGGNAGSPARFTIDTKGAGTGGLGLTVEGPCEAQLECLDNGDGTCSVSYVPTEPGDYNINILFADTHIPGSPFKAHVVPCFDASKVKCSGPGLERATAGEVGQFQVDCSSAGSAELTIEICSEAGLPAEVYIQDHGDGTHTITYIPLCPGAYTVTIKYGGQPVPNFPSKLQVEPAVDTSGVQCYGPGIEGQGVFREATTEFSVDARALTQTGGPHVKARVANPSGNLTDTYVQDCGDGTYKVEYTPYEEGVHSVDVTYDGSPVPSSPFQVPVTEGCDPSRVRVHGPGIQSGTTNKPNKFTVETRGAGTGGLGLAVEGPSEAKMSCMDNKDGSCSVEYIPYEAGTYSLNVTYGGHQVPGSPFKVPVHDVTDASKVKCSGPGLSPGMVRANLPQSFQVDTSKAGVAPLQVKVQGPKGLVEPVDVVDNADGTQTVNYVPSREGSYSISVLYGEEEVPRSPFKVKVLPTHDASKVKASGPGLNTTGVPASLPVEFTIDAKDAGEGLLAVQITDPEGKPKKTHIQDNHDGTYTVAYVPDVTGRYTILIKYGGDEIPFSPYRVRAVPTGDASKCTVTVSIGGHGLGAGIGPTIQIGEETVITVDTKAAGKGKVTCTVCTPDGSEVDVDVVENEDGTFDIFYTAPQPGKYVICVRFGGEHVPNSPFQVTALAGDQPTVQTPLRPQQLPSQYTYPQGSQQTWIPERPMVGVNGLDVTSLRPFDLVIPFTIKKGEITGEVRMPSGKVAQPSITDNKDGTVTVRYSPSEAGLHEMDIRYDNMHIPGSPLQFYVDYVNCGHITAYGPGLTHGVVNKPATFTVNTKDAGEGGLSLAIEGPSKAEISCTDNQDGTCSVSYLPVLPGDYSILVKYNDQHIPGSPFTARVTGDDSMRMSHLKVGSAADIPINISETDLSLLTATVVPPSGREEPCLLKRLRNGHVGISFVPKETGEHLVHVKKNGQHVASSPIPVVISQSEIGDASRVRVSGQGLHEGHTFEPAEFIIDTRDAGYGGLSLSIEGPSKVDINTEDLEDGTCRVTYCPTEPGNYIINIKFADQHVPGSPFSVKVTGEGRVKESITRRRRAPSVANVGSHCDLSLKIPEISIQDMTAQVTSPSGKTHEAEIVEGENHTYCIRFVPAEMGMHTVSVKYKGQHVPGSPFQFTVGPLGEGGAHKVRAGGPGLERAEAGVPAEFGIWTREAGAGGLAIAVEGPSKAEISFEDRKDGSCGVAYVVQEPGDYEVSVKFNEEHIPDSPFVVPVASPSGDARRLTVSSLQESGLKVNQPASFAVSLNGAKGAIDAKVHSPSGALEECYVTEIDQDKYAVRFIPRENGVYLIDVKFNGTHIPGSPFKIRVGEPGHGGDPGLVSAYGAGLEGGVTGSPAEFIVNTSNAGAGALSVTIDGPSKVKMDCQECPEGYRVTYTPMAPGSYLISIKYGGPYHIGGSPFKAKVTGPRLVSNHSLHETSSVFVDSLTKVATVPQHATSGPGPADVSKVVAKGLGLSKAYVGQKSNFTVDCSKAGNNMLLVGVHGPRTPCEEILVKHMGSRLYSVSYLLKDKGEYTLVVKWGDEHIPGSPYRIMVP
T2 sequence (P36544 23-502, one chain of several): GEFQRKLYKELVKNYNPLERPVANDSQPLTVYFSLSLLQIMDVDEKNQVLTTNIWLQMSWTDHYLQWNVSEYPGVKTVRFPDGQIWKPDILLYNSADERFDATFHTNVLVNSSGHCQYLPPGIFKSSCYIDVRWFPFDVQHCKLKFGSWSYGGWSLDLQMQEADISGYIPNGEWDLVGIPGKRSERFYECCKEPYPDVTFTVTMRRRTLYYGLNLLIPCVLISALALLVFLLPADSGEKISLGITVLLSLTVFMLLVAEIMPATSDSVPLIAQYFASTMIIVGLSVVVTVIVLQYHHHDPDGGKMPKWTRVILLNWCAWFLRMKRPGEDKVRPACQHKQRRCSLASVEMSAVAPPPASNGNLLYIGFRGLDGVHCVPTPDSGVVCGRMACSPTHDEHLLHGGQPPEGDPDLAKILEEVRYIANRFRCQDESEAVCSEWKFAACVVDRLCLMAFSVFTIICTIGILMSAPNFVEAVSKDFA

For the compound `CC(=O)c1ccc(S(=O)(=O)N2CCC3(CC2)NC(=O)CO3)cc1` [Compound C0087], in test [1], the “α7nAChR-FLNA association (ratio α7nAChR/FLNA)” value is “reduce α7nAChR-FLNA association”.
Regarding `O=C(Nc1ccccc1)N1CCC2(CC1)NCC(=O)N2Cc1ccccc1` [Compound C], the “Aβ42-induced tau phosphorylation at S202, T231 and T181” value in test [2] is “did not provide a statistically significant result at two phosphorylation positions when simultaneously administered”. The “α7nAChR-FLNA association (ratio α7nAChR/FLNA)” value in test [1] was “statistically different from Aβ42 alone”.
The matching figures for `O=C1CNC2(CCN(C(=S)Nc3ccccc3)CC2)N1Cc1ccccc1` [Compound A]: “reduced tau phosphorylation with simultaneous administration at 1 nM” and “statistically different from Aβ42 alone”.
As for `COc1ccc2c3c1O[C@H]1C[C@@H](O)C=C[C@@]31CCN(C)C2` [Galantamine, galantamine], in test [3] (1 μM agent), the “FLNA/α7nAChR ratio (stimulation vs vehicle, %)” value is on record as “(17.1 ± 14.6) %”. For the same compound, in test [3] (setting [6]), the “Aβ42 effect, %” value was 1.7 ± 1.5%.
As to `CCN1C[C@]2(COC(=O)c3ccccc3N3C(=O)C[C@H](C)C3=O)CC[C@H](OC)[C@@]34[C@@H]5C[C@H]6[C@H](OC)[C@@H]5[C@](O)(C[C@@H]6OC)[C@@](O)([C@@H](OC)[C@H]23)[C@@H]14` [Methyllycaconitine, methyllycaconitine], in test [3], the “Aβ42 effect, %” value is 2.0 ± 1.2%; the “FLNA recruitment to α7nAChRs (in words)” value is listed as “showed no effect”; the FLNA/α7nAChR ratio is given as 0.08 ± 0.02; the “FLNA/α7nAChR ratio (stimulation vs vehicle, %)” value was “(19.8 ± 12.2) %”.
Regarding `Cc1ccc(S(=O)(=O)N2CCOC23CCN(CC2CCC2)CC3)cc1` [Compound 9], in test [4], the “Binding to FLNA (in words)” value was “bind well to FLNA”. Besides, the “MOR agonist activity ([35S]GTPγS binding), compound as agonist” value turned out to be 156.6% in test [5] (0.1 μM), 56.6% in test [5] (1 μM + βNFA) and 197.2% in test [5] (1 μM). Also, the “MOR agonist activity (in words)” value in test [5] was “MOR agonists”.
The like results for `C=CCN1CCC2(CC1)OCCN2S(=O)(=O)c1ccc(C)cc1` [Compound 10] were, in that order, “bind well to FLNA”, 163.1%, 60.4%, 191.8% and “MOR agonists”.
The like results for `O=S(=O)(c1ccc(OC(F)(F)F)cc1)N1CCOC12CCN(CC1CC1)CC2` [Compound 4] were, in that order, “bound well to FLNA”, 133.9%, 49.5%, 165.2% and “not as potent a MOR agonist”.
For the compound `O=C1CNC2(CCN(C(=S)Nc3cccnc3)CC2)N1Cc1ccccc1` [Compound B], the “α7nAChR-FLNA association (ratio α7nAChR/FLNA)” value in test [1] is recorded as “statistically different from Aβ42 alone”.
On to `CC12CC3CC(C)(C1)CC(N)(C3)C2` [Memantine, memantine], for which, in test [3] (1 μM agent), the “FLNA/α7nAChR ratio (stimulation vs vehicle, %)” value is given as “(225.9 ± 38.5) %”. Also, the FLNA/α7nAChR ratio in test [3] (1 μM agent, postmortem control frontocortical tissue) is 0.21 ± 0.03. Further, in test [3] (setting [6]), the “Aβ42 effect, %” value was found to be 23.0 ± 3.9%. In addition, the “FLNA recruitment to α7nAChRs (in words)” value in test [3] (postmortem control frontocortical tissue) is recorded as “elicited the recruitment of FLNA to α7nAChRs”.
With `CC(=O)c1ccc(S(=O)(=O)N2CC(CN(C)C)OC23CCN(C)CC3)cc1` (centres unmarked) [Compound C0108], in test [1], the “α7nAChR-FLNA association (ratio α7nAChR/FLNA)” value is reported as “reduce α7nAChR-FLNA association”.
Regarding `O=C1CNC2(CCN(CC3CC3)CC2)N1Cc1ccccc1` [Compound C0124], in test [2], the “Aβ42-induced tau phosphorylation at S202, T231 and T181” value is “reduced this phosphorylation at both concentrations”. Further, the “α7nAChR-FLNA association (ratio α7nAChR/FLNA)” value in test [1] was “reduce α7nAChR-FLNA association”.
Take `COc1c2c(cc3c1C(CC(O)Cc1ccccc1C)N(C)CC3)OCO2` (centres unmarked) [Compound B0054]: in test [4] (0.01 μM FLNA-binding compound), the “Percent Binding Inhibition (FITC-NLX binding)” value (“Percent Binding Inhibition” for short) is recorded as 25.6%. Further, the “Percent Binding Inhibition” value in test [4] (0.1 μM FLNA-binding compound) worked out at 32.6%. Also, in test [4] (1 μM FLNA-binding compound), the “Percent Binding Inhibition” value worked out at 43.3%. In test [5], the “% DAMGO (0.1 μM)” value is 93.4%, the “% DAMGO (1 μM)” value turned out to be 85.3%, the “% DAMGO + BFNA” value was 668.7% and the “Concentration of FLNA-Binding Compound as Agonist 0.1 μM” value (“Concentration … as Agonist 0.1 μM” for short) is reported as 157.8%. Further, in test [5], the “Concentration of FLNA-Binding Compound as Agonist 1 μM” value is 186.7% and the “Concentration of FLNA-Binding Compound as Agonist 1 μM + BFNA” value (“Concentration … as Agonist 1 μM + BFNA” below) came out at 111.0%.
For the compound `O=C(N[C@H]1CN2CCC1CC2)c1ccc(Cl)cc1` [PNU282987], in test [3], the “Aβ42 effect, %” value turned out to be 8.9 ± 3.9%; the FLNA/α7nAChR ratio was found to be 0.12 ± 0.02; the “FLNA/α7nAChR ratio (stimulation vs vehicle, %)” value is reported as “(87.1 ± 37.9) %”.
The matching figures for `CN1CCCC1c1cccnc1` (centres unmarked) [Nicotine, nicotine]: 11.0 ± 3.2%, 0.13 ± 0.02 and “(107.7 ± 31.4) %”.
As to `Cc1ccc(S(=O)(=O)N2CCOC23CCN(CC2CC2)CC3)cc1` [Compound C0134], the “α7nAChR-FLNA association (ratio α7nAChR/FLNA)” value in test [1] was “statistically different from Aβ42 alone”.
For the compound `COc1c2c(cc3c1C(CC(=O)c1ccc(F)c(F)c1)[N+](C)(C)CC3)OCO2` (centres unmarked) [Compound B0003], the “Percent Binding Inhibition” value in test [4] (0.01 μM FLNA-binding compound) is 45.4%. Besides, the “Percent Binding Inhibition” value in test [4] (0.1 μM FLNA-binding compound) was 52.9%. The “Percent Binding Inhibition” value in test [4] (1 μM FLNA-binding compound) was found to be 63.5%. In test [5], the “% DAMGO (0.1 μM)” value came out at 59.9%, the “% DAMGO (1 μM)” value is on record as 47.4%, the “% DAMGO + BFNA” value is 29.0% and the “Concentration … as Agonist 0.1 μM” value is given as 103.0%. In test [5], the “Concentration of FLNA-Binding Compound as Agonist 1 μM” value came out at 131.1% and the “Concentration … as Agonist 1 μM + BFNA” value is listed as 18.6%.
Turning to `CC1CCC(C(C)C)C(OCC(O)CN2CCc3ccccc32)C1` (centres unmarked) [Compound A0065], the “Percent Binding Inhibition” value in test [4] (0.01 μM FLNA-binding compound) is listed as 38.7%. The “Percent Binding Inhibition” value in test [4] (0.1 μM FLNA-binding compound) was 50.0%. Besides, in test [4] (1 μM FLNA-binding compound), the “Percent Binding Inhibition” value came out at 50.8%. Moreover, in test [5], the “% DAMGO (0.1 μM)” value was 126.6%, the “% DAMGO (1 μM)” value turned out to be 115.7%, the “% DAMGO + BFNA” value was determined as 112.5% and the “Concentration … as Agonist 0.1 μM” value is reported as 197.6%. In test [5], the “Concentration of FLNA-Binding Compound as Agonist 1 μM” value amounted to 266.8% and the “Concentration … as Agonist 1 μM + BFNA” value was determined as 44.9%.
